In doi:10.1101/717207v1 (bioRxiv, 2019):

Legend:
[1] = Peptide binding to heparin studied by ITC; conditions: heparin into peptide, PBS, one site model, average of two experiments
[2] = Peptide binding to POPG LUVs studied by ITC; conditions: POPG LUVs into peptide, PBS, one site model, once or twice
[3] = Peptide secondary structure by ATR-FTIR in the absence or presence of heparin; type: physicochemical; conditions: for Percentage of structural elements: β-strand: ATR-FTIR amide I deconvolution, 1627 cm^-1; for Percentage of structural elements: Random coil / Percentage of structural elements: α-Helix / Percentage of structural elements: Turn: ATR-FTIR; for Percentage of structural elements: Random coil: 1643 cm^-1; for Percentage of structural elements: α-Helix: 1659 cm^-1; for Percentage of structural elements: Turn: 1679 cm^-1
[4] = Perturbation of DMPG membrane organization probed by DSC; type: physicochemical; conditions: DMPG MLVs 1 mg/mL in PBS, peptide-to-lipid ratio 1/50, 1°C/min, 0-50°C
[5] = +Hep (8.3 µM heparin, peptide per ITC stoichiometry)

Row | Sequence | TΔS [1] [kcal/mol] | ΔH [1] [kcal/mol] | TΔS [2] [kcal/mol] | ΔH [2] [kcal/mol] | Percentage of structural elements: β-strand ([3]; peptide alone, 100 µM in PBS) [%] | Percentage of structural elements: Random coil [3, 5] [%] | Percentage of structural elements: Random coil ([3]; peptide alone, 100 µM in PBS) [%] | Percentage of structural elements: α-Helix [3, 5] [%] | Percentage of structural elements: α-Helix ([3]; peptide alone, 100 µM in PBS) [%] | Percentage of structural elements: Turn [3, 5] [%] | Percentage of structural elements: Turn ([3]; peptide alone, 100 µM in PBS) [%] | effect on DMPG bilayer organization (phase transitions) [4]
1 | RRRRWRRRR [Peptide R8W1-1] | -71.5 | -81.7 | 6.2 | -0.72 |  |  |  |  |  |  |  | 
2 | RRWRRRRWW [nR6W3] | -113.0 | -123.3 | 6.5 | -1.27 | 21 | 24 | 23 | 27 | 25 | 22 | 31 | 
3 | RRWWRRWWR [aR5W4] | -165.9 | -176.6 | 5.0 | -2.53 | 11 | 20 | 24 | 30 | 29 | 30 | 36 | 
4 | RRWWRRWRR [aR6W3] | -105.6 | -116.4 | 5.7 | -1.39 | 13 | 24 | 17 | 28 | 30 | 40 | 40 | 
5 | RRDWDWRRDWRR [Peptide R6DW3] | -80.5 | -91.1 | 6.2 | -0.74 |  |  |  |  |  |  |  | almost identical to that of aR6W3
6 | RRRWRRWRR [aR7W2] | -86.3 | -96.8 | 6.2 | -0.84 | 22 | 20 | 18 | 26 | 25 | 37 | 35 | 
7 | RWWWWRRRR [nR5W4] | -169.0 | -179.3 | 5.7 | -2.10 | 17 | 22 | 22 | 26 | 26 | 32 | 35 | 
8 | RRRRRRRRW [Peptide R8W1-2] | -82.0 | -92.3 | 6.7 | -0.79 |  |  |  |  |  |  |  | 
9 | RRRRRRRRR [Peptide R9] | -60.5 | -71.7 | 7.4 | -0.60 |  |  |  |  |  |  |  | 
10 | RWRWRRRRR [nR7W2] | -82.9 | -93.5 | 6.7 | -0.81 |  |  |  |  |  |  |  | 
